Reference: article doi:10.1101/2023.11.24.568596v1 (biorxiv, 2023)
Each block holds one compound with its values, some of them ahead of it.

How the values were obtained:
Settings in all cases: binder
MST1 = molecular target: T1, MST1 (Homo sapiens, UniProt Q13043)
T1 sequence (Q13043 1-487): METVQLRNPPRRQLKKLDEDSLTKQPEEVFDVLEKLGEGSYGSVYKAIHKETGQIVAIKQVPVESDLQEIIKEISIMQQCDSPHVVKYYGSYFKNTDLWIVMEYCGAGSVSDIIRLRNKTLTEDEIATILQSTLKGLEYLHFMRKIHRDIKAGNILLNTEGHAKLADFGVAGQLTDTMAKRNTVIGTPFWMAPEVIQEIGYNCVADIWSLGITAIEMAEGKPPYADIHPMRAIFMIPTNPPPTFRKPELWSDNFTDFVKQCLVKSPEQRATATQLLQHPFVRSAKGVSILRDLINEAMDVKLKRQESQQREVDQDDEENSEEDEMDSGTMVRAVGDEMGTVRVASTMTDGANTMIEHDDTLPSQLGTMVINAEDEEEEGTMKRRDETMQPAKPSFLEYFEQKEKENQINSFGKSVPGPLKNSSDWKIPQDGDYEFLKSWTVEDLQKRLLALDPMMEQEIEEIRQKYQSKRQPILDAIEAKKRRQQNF

MAP3K5 = molecular target: T2, MAP3K5 (Homo sapiens, UniProt Q99683)
T2 sequence (Q99683 1-1374): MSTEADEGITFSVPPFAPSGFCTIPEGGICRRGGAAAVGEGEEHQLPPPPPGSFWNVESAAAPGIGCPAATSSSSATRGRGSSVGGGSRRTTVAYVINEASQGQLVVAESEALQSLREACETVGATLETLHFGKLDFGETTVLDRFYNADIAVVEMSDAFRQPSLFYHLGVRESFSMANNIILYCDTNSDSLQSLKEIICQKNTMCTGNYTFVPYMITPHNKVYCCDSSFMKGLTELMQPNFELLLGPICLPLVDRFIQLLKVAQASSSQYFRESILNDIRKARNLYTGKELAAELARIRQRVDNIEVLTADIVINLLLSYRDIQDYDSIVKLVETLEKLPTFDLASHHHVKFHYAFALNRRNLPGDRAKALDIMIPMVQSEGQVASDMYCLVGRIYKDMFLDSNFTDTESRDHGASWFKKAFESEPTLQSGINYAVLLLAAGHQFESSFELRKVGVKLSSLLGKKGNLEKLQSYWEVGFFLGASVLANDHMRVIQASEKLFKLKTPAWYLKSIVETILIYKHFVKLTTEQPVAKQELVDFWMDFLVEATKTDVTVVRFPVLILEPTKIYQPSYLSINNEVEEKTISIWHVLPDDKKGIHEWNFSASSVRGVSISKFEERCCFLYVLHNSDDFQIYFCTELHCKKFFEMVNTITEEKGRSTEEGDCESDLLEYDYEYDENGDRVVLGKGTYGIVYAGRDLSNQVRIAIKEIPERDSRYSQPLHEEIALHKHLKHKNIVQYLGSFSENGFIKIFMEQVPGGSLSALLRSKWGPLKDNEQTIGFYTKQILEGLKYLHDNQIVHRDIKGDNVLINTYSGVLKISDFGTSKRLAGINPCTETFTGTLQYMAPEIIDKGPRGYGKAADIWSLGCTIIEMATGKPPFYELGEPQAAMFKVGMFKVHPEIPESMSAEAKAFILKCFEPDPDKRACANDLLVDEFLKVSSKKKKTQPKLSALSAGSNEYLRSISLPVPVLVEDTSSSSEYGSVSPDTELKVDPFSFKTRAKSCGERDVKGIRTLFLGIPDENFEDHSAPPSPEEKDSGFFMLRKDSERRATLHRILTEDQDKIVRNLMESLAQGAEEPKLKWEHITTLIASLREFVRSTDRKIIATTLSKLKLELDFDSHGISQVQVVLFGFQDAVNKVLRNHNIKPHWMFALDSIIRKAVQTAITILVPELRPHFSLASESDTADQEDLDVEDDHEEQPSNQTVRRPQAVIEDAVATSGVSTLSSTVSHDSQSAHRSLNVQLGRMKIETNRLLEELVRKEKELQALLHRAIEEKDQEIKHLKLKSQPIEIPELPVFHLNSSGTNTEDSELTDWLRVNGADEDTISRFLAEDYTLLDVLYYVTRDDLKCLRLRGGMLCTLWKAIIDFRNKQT

DYRK2 = molecular target: T3, DYRK2 (Homo sapiens, UniProt Q92630)
T3 sequence (Q92630 1-601): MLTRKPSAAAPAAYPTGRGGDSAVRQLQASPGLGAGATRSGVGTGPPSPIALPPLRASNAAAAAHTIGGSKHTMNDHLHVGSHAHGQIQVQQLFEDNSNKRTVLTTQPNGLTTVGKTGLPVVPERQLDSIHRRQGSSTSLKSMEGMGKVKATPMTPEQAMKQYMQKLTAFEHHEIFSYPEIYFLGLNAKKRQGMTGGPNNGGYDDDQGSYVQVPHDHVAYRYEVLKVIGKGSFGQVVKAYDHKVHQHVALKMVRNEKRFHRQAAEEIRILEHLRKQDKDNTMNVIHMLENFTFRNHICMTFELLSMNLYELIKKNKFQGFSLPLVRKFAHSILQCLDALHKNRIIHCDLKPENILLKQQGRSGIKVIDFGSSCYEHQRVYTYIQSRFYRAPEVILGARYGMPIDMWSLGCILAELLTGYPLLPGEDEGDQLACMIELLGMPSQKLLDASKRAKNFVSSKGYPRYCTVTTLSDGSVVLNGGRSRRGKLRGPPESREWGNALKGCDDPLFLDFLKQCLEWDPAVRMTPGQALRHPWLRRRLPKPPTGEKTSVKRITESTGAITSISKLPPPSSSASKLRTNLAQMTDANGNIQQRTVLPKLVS

PAK1 = PAK1 (Homo sapiens, UniProt Q13153)
Sequence of PAK1 (Q13153 whole entry): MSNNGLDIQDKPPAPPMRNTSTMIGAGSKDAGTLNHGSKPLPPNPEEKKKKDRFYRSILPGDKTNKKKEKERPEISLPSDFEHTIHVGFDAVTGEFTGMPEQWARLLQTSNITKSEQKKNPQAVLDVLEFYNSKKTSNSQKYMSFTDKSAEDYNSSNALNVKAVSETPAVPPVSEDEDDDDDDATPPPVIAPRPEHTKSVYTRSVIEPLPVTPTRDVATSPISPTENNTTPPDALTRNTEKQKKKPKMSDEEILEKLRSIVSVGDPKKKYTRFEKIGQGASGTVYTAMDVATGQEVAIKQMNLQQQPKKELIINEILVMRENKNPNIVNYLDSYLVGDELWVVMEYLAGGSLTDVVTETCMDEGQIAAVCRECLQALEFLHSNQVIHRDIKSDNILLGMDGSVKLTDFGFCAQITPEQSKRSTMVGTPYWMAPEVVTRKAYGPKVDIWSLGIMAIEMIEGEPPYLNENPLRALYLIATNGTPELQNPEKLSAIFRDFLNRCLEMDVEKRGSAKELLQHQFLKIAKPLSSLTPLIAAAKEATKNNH

ΔTm MRLW5 (20) (MST1): 5.6 °C
ΔTm MRLW5 (20) (MAP3K5): 12.3 °C
ΔTm MRLW5 (20) (DYRK2): -0.1 °C
ΔTm MRLW5 (20) (PAK1): 7.5 °C
SMILES: CNc1ncc2cc(-c3ccc(-c4cccc(C)n4)cc3Cl)c(=O)n(CCCCN)c2n1 [compound 20, MRLW5]

ΔTm 22 (MST1): 6.0 °C
ΔTm 22 (MAP3K5): 12.0 °C
ΔTm 22 (DYRK2): -0.4 °C
ΔTm 22 (PAK1): 8.6 °C
SMILES: CNc1ncc2cc(-c3ccc(-c4cccc(C)n4)cc3Cl)c(=O)n(CCC3CCNCC3)c2n1 [compound 22, 6-(2-Chloro-4-(6-methylpyridin-2-yl)phenyl)-2-(methylamino)-8-(2-(piperidin-4-yl)ethyl)pyrido[2,3-d]pyrimidin-7(8H)-one]

ΔTm MR24 (24) (MST1): -0.6 °C
ΔTm MR24 (24) (MAP3K5): 9.0 °C
ΔTm MR24 (24) (DYRK2): -0.3 °C
ΔTm MR24 (24) (PAK1): 6.9 °C
SMILES: Cc1cccc(-c2ccc(-c3cc4cnc(NC(CO)CO)nc4n(CCCCN)c3=O)c(Cl)c2)n1 [compound 24, 8-(4-Aminobutyl)-6-(2-chloro-4-(6-methylpyridin-2-yl)phenyl)-2-((1,3-dihydroxypropan-2-yl)amino)pyrido[2,3-d]pyrimidin-7(8H)-one]

ΔTm MR26 (26) (MST1): -0.5 °C
ΔTm MR26 (26) (MAP3K5): 9.8 °C
ΔTm MR26 (26) (DYRK2): -0.2 °C
ΔTm MR26 (26) (PAK1): 5.7 °C
SMILES: Cc1cccc(-c2ccc(-c3cc4cnc(NCCCN5CCOCC5)nc4n(CCCCN)c3=O)c(Cl)c2)n1 [compound 26, MR26]

Further lines, the compound ahead of its results:

SMILES: CNc1ncc2cc(-c3ccc(-c4cccc(C)n4)cc3Cl)c(=O)n(C[C@H]3CC[C@H](N)CC3)c2n1 [compound 23, 23]
ΔTm 23 (MST1): 7.9 °C
ΔTm 23 (MAP3K5): 12.4 °C
ΔTm 23 (DYRK2): -0.2 °C
ΔTm 23 (PAK1): 8.9 °C

SMILES: Cc1cccc(-c2ccc(-c3cc4cnc(NCCCc5ccc(N)cc5)nc4n(CCCCN)c3=O)c(Cl)c2)n1 [compound 25, 8-(4-Aminobutyl)-2-((3-(4-aminophenyl)propyl)amino)-6-(2-chloro-4-(6-methylpyridin-2-yl)phenyl)pyrido[2,3-d]pyrimidin-7(8H)-one]
ΔTm 25 (MST1): -1.4 °C
ΔTm 25 (MAP3K5): 11.8 °C
ΔTm 25 (DYRK2): -0.6 °C
ΔTm 25 (PAK1): 8.3 °C
